According to paper PMC2829052, “Mycobacterium tuberculosis Peptides Presented by HLA-E Molecules Are Targets for Human CD8^+ T-Cells with Cytotoxic as well as Regulatory Activity” (PLoS Pathogens, 2010):
Like-named read-outs stand apart in the source and are kept apart here. Where no end group is shown, it is not given here.

What was measured:
[1] = molecular target: T1, recombinant human HLA-E*0103 (Homo sapiens, UniProt P13747); assay: biochemical; format: binding
T1 construct: made in house; host or cells: E. coli

CD3+CD8+CD56- T-cells = format: cell-based, human; details: for percentage of proliferation within CD3+CD8+CD56- cells: PBMCs, peptide 10 µg/ml (PHA 2 µg/ml, PPD 5 µg/ml), IL-7, IL-2 day 7, CFSE read day 10
TGFβ1 = format: cell-based, human
CD8+ T-cells = format: cell-based, human
[2] = concentration of peptide reducing fluorescence of standard peptide VMAPC(Fl)TLLL (100 fmol) by 50%, […], gel filtration HPLC, emission 528 nm, at least two separate experiments, read-out: Binding

Compound | IC50 [1, 2] [µM] | also measured
CC[C@H](C)[C@H](N)C(=O)N[C@@H](CCSC)C(=O)N[C@@H](C)C(=O)N[C@@H](CC(N)=O)C(=O)N[C@@H](CCCNC(=N)N)C(=O)N[C@@H](C)C(=O)N[C@@H](CCC(N)=O)C(=O)N[C@H](C(=O)N[C@@H](CC(C)C)C(=O)O)C(C)C [Peptide 3] | 0.4 | 
CSCC[C@H](NC(=O)[C@@H](N)CCC(N)=O)C(=O)N[C@@H](CCCCN)C(=O)N[C@@H](Cc1ccccc1)C(=O)N[C@@H](Cc1ccc(O)cc1)C(=O)N[C@@H](C)C(=O)N[C@H](C(=O)N[C@@H](C)C(=O)N[C@@H](CC(C)C)C(=O)O)C(C)C [Peptide 5, QMKFYAVAL] |  | IC50 [1]: 1.5 µM
CC(C)C[C@H](NC(=O)[C@H](CC(C)C)NC(=O)[C@@H]1CCCN1C(=O)[C@H](C)NC(=O)[C@H](CCCCN)NC(=O)[C@H](C)NC(=O)[C@@H]1CCCN1C(=O)[C@H](CC(C)C)NC(=O)[C@@H](N)CCCNC(=N)N)C(=O)O [Peptide 44] | 0.03 | 
CC[C@H](C)[C@H](N)C(=O)N[C@@H](CC(C)C)C(=O)N1CCC[C@H]1C(=O)N[C@@H](CO)C(=O)N[C@@H](CC(=O)O)C(=O)N[C@@H](C)C(=O)N1CCC[C@H]1C(=O)N[C@H](C(=O)N[C@@H](CC(C)C)C(=O)O)C(C)C [Peptide 49] | 0.2 | 
AMAGSIDLL [Peptide 36] | 34 | 
DLPSRLGKI-OH [Peptide 58] | > 50 | 
DMLGRAGGL-OH [Peptide 12] | > 50 | 
EMGRAPLDL-OH [Peptide 43] | > 50 | 
EMLTSRGLL-OH [Peptide 37] |  | IC50 [1]: > 50 µM
EMVLRADQL-OH [Peptide 11] | > 50 | 
FLAADALVL-OH [Peptide 15] | > 50 | 
FLLPRGLAI-OH [Peptide 54] | > 50 | percentage of proliferation within CD3+CD8+CD56- cells (CD3+CD8+CD56- T-cells; donor 2): 15.8%; percentage of proliferation within CD3+CD8+CD56- cells (CD3+CD8+CD56- T-cells; donor 4): 0.2%; percentage of proliferation within CD3+CD8+CD56- cells (CD3+CD8+CD56- T-cells; donor 6): 1.6%
FMTRLGPLL [Peptide 60] |  | IC50 [1]: 37 µM
GLDARAYRL-OH [Peptide 19] | > 50 | 
GLDSRAYRL-OH [Peptide 18] | > 50 | 
GMGMVGTAL-OH [Peptide 35, GMGMVGTAL] | > 50 | 
GMNVTAPAL [Peptide 7, GMNVTAPAL] | 8 | 
IEPRGAQAL-OH [Peptide 57, IEPRGAQAL] |  | IC50 [1]: > 50 µM
KMNAKAATL [Peptide 4] | 15 | 
LAP: recombinant latency associated peptide, reverts active TGFβ to a latent, inactive form (R&D systems) |  | increased proliferation on addition of LAP to the indicator clone only (TGFβ1; Rp15 1-1 clone without Tregs, data not shown): ≤ 20%; increase of proliferation on addition of LAP to co-cultures of Tregs and indicator clones (TGFβ1; Tregs + Rp15 1-1, 0.5 µg/ml cognate peptide, HLA-DR3+ APCs, 3 days): over 40%
LMGAEADAL-OH [Peptide 17, LMGAEADAL] | > 50 | 
LMGALAVVL [Peptide 26] | 21 | 
LMHYRGELL [Peptide 29] |  | IC50 [1]: 20 µM
LPAERAHEL-OH [Peptide 31] |  | IC50 [1]: > 50 µM
PMADIAAAL-OH [Peptide 23, PMADIAAAL] | > 50 | 
PMAPLAPLL [Peptide 20] | 3 | 

Compound | IC50 [1, 2] [µM] | also measured
PMKRTALAL [Peptide 6, PMKRTALAL] | 18 | 
QLAPGLQLI-OH [Peptide 46] | > 50 | 
REPRRGPRL-OH [Peptide 51] |  | IC50 [1]: > 50 µM
RLANLLPLI [Peptide 48] | 32 | 
RLASCRDAL-OH [Peptide 61, RLASCRDAL] |  | number of PPD responding adult donors recognizing the peptide (CD3+CD8+CD56- T-cells; 10 PPD responders, recognition = >10% proliferating CD3+CD8+CD56- T-cells): not by any; number of BCG vaccinees recognizing the peptide (CD8+ T-cells): 2
RLGRLLNRI-OH [Peptide 56] | > 50 | 
RLRPELAGL [Peptide 52] | 46 | 
RMAATAQVL [Peptide 14] | 2 | 
RMPPLGHEL [Peptide 62] |  | IC50 [1]: 4 µM
RPANLAFFL [Peptide 59] |  | IC50 [1]: 1.3 µM
RSCPRLTIL-OH [Peptide 64] | > 50 | 
SMADRAENL-OH [Peptide 1] | > 50 | 
SMAGRAGQL-OH [Peptide 2] | > 50 | 
TMITFRLRL [Peptide 33] | 2.4 | 
TSADRAVVL [Peptide 28] | 39 | 
VEAFRTRPL-OH [Peptide 16] | > 50 | 
VLLPGLPYL [Peptide 50] |  | IC50 [1]: 8 µM
VLPACLGIL [Peptide 67] | 12 | 
VLRPGGHFL [Peptide 68] | 1.8 | 
VMAPDAVRI [Peptide 63] | 31 | 
VMATRRNVL [Peptide 55] | 16 | 
VMMSEIAGL [Peptide 32] | 13 | 
VMTTVLATL [Peptide 34] | 1.8 | 
VSNLRTGKL-OH [Peptide 27] |  | IC50 [1]: > 50 µM
WLPPLLTNL [Peptide 69] |  | IC50 [1]: 39 µM
WMCDRAVDL-OH [Peptide 9] |  | IC50 [1]: > 50 µM
